Data on 28 compounds can be found in patent US9549932B2, “2-(morpholin-4-yl)-1,7-naphthyridines” (BAYER PHARMA AKTIENGESELLSCHAFT, priority 2014, dated 2017).

full-length human ATR protein, sequence (Q13535 other isoform, or with tags, fused parts or gaps): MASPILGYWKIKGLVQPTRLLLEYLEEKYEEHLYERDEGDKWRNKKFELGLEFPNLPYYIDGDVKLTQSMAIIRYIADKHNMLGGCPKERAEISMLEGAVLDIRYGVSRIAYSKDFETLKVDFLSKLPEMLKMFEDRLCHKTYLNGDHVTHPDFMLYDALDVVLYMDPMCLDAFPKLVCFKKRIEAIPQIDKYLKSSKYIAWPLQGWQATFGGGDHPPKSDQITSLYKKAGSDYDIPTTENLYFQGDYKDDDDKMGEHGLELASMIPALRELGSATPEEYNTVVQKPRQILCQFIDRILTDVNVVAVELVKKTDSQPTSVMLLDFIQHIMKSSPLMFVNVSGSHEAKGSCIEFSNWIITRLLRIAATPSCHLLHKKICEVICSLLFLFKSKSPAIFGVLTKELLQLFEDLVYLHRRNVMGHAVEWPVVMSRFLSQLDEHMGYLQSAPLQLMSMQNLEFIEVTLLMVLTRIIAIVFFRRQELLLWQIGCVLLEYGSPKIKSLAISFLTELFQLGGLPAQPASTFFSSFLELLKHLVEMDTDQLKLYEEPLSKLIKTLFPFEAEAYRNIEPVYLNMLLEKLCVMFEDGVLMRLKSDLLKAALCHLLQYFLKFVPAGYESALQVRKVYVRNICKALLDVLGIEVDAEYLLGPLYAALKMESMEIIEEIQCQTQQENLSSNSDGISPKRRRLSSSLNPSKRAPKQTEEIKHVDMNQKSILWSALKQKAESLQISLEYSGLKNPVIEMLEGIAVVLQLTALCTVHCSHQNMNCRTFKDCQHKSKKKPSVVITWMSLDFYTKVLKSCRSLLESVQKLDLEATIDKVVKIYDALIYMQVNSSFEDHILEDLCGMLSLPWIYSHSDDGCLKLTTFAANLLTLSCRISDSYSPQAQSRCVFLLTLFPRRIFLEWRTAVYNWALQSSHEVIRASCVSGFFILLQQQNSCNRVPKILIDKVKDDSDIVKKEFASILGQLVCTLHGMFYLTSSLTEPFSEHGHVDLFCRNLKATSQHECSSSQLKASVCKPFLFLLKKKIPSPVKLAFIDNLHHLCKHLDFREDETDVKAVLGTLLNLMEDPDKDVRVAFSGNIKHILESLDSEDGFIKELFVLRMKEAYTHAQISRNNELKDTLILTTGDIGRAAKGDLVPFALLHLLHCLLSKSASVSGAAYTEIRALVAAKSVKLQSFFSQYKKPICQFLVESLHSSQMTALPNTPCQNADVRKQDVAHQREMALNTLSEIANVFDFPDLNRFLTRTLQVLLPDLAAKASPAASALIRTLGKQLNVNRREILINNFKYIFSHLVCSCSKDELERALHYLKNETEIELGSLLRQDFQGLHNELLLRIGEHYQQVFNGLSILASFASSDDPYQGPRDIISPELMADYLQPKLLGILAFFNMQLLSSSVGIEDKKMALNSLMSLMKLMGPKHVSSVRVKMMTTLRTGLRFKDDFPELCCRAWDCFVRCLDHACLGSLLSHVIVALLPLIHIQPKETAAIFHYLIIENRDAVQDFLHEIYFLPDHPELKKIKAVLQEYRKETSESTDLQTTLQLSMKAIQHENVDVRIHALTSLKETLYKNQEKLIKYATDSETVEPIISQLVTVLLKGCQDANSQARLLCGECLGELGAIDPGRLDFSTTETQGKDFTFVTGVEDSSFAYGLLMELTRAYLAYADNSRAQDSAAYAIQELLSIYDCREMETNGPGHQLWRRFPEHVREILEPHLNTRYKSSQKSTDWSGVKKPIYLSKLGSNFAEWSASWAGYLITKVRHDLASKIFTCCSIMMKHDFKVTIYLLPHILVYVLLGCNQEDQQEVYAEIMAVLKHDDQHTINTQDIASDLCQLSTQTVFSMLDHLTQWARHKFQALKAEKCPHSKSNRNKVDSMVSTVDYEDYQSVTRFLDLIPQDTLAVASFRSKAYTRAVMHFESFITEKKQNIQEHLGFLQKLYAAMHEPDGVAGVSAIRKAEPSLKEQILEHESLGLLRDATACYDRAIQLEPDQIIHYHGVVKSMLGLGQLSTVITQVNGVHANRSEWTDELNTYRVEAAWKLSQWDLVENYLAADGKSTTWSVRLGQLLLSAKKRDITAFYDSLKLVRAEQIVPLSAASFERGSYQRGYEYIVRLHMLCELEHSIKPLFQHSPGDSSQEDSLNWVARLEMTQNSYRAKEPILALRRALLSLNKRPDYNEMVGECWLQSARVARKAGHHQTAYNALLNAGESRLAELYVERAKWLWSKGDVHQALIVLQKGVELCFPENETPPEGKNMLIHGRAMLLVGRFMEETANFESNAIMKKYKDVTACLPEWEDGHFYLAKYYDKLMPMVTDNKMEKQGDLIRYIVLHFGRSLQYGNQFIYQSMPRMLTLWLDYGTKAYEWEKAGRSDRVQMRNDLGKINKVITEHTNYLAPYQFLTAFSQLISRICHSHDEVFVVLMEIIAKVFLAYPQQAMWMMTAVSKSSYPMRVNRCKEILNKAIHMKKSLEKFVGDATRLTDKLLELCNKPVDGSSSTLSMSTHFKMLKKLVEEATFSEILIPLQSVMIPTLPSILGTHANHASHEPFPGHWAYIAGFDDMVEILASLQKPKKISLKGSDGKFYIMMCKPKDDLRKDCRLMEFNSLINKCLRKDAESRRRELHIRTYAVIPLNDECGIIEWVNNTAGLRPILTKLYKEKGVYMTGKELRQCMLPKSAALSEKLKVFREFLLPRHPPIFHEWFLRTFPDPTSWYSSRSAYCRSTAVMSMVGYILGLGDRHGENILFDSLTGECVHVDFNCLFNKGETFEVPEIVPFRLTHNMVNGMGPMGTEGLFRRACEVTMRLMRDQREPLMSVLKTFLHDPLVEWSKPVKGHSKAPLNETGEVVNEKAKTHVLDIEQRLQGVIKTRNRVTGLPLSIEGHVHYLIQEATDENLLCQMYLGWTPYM
full-length human ATR protein, sequence (Q8WXE1 other isoform, or with tags, fused parts or gaps partner): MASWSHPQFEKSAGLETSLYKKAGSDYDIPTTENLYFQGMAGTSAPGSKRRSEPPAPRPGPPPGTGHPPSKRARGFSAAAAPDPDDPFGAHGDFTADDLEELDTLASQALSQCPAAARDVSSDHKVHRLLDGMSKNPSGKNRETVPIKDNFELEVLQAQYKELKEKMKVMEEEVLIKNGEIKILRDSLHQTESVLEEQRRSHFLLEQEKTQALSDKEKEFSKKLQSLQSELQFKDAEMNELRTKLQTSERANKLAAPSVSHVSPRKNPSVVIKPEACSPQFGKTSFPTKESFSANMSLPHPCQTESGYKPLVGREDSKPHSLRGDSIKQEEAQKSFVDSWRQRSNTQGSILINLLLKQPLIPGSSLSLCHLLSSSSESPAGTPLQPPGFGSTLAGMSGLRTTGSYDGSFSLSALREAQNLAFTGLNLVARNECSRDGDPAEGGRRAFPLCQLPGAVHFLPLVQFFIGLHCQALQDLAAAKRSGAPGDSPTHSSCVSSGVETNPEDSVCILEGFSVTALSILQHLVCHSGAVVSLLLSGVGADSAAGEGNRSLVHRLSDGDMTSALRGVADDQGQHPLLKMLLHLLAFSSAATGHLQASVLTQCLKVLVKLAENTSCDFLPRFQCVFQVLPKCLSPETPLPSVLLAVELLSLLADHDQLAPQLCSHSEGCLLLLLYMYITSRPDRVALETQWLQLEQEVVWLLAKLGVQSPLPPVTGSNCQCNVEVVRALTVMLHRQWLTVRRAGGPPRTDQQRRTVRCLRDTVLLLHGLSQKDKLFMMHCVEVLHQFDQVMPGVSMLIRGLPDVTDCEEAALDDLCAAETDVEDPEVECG

This assay deals with full-length human ATR protein (Homo sapiens (Human), UniProt Q13535). The assay can be described thus: Binding assay ATR (TR-FRET tracer displacement). Conditions: tracer A, TR-FRET; read-out: ATR binding (tracer A) IC50. The method, boiled down:
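Full-length human GST-ATR co-purified with ATRIP, pre-complexed 30 min at 22 °C with anti-GST-Tb antibody, then pre-bound with compound 10 min. Tracer A or B added (2 µl of 100 nM solution), 30 min at 22 °C.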
On the technique in general: TR-FRET usually uses a lanthanide donor and a delayed reading to cut background.
Broadly, the IC50 is the point on the concentration scale where inhibition reaches its midpoint. As to `O=C(c1cccc(-c2cc(N3CCOCC3)nc3c(-c4ccn[nH]4)nccc23)c1)N1CCCCC1` [Example 328, {3-[2-(morpholin-4-yl)-8-(1H-pyrazol-5-yl)-1,7-naphthyridin-4-yl]phenyl}(piperidin-1-yl)methanone], the IC50 came out at 296 nM.

As for `CC(C)c1ccc(-c2cc(N3CCOCC3)nc3c(-c4ccn[nH]4)nccc23)cc1` [Example 329, 2-(morpholin-4-yl)-4-[4-(propan-2-yl)phenyl]-8-(1H-pyrazol-5-yl)-1,7-naphthyridine], the IC50 was determined as 169 nM. In the case of `O=C(NC1CC1)c1cccc(-c2cc(N3CCOCC3)nc3c(-c4ccn[nH]4)nccc23)c1` [Example 330, N-cyclopropyl-3-[2-(morpholin-4-yl)-8-(1H-pyrazol-5-yl)-1,7-naphthyridin-4-yl]benzamide], the IC50 worked out at 91.3 nM. In the case of `c1ccc(-c2ccc(-c3cc(N4CCOCC4)nc4c(-c5ccn[nH]5)nccc34)cc2)cc1` [Example 331, 4-(biphenyl-4-yl)-2-(morpholin-4-yl)-8-(1H-pyrazol-5-yl)-1,7-naphthyridine] it was 376 nM; in that of `COc1ccc(-c2cc(N3CCOCC3)nc3c(-c4ccn[nH]4)nccc23)c(OC)c1` [Example 332, 4-(2,4-dimethoxyphenyl)-2-(morpholin-4-yl)-8-(1H-pyrazol-5-yl)-1,7-naphthyridine], 68.1 nM; in that of `Clc1ccccc1-c1cc(N2CCOCC2)nc2c(-c3ccn[nH]3)nccc12` [Example 333, 4-(2-chlorophenyl)-2-(morpholin-4-yl)-8-(1H-pyrazol-5-yl)-1,7-naphthyridine], 25.3 nM. With `Cc1ccc(C)c(-c2cc(N3CCOCC3)nc3c(-c4ccn[nH]4)nccc23)c1` [Example 334, 4-(2,5-dimethylphenyl)-2-(morpholin-4-yl)-8-(1H-pyrazol-5-yl)-1,7-naphthyridine], the half-maximal inhibitory concentration (IC50) is 58.1 nM.

For the compound `Nc1cccc(-c2cc(N3CCOCC3)nc3c(-c4ccn[nH]4)nccc23)c1` [Example 335, 3-[2-(morpholin-4-yl)-8-(1H-pyrazol-5-yl)-1,7-naphthyridin-4-yl]aniline], the IC50 amounted to 66.2 nM. In the case of `Oc1cccc(-c2cc(N3CCOCC3)nc3c(-c4ccn[nH]4)nccc23)c1` [Example 337, 3-[2-(morpholin-4-yl)-8-(1H-pyrazol-5-yl)-1,7-naphthyridin-4-yl]phenol] it was 28.4 nM; in that of `COc1ccc(F)c(-c2cc(N3CCOCC3)nc3c(-c4ccn[nH]4)nccc23)c1` [Example 338, 4-(2-fluoro-5-methoxyphenyl)-2-(morpholin-4-yl)-8-(1H-pyrazol-5-yl)-1,7-naphthyridine], 103 nM. Take `COc1ccc(F)cc1-c1cc(N2CCOCC2)nc2c(-c3ccn[nH]3)nccc12` [Example 339, 4-(5-fluoro-2-methoxyphenyl)-2-(morpholin-4-yl)-8-(1H-pyrazol-5-yl)-1,7-naphthyridine]: the IC50 was found to be 89.6 nM.

Consider `Fc1ccc(-c2cc(N3CCOCC3)nc3c(-c4ccn[nH]4)nccc23)c(F)c1` [Example 340, 4-(2,4-difluorophenyl)-2-(morpholin-4-yl)-8-(1H-pyrazol-5-yl)-1,7-naphthyridine], for which the half-maximal inhibitory concentration (IC50) worked out at 33.5 nM.

In the case of `Fc1cccc(-c2cc(N3CCOCC3)nc3c(-c4ccn[nH]4)nccc23)c1F` [Example 341, 4-(2,3-difluorophenyl)-2-(morpholin-4-yl)-8-(1H-pyrazol-5-yl)-1,7-naphthyridine], the IC50 came to 26.4 nM. In the case of `COc1cccc(OC)c1-c1cc(N2CCOCC2)nc2c(-c3ccn[nH]3)nccc12` [Example 342, 4-(2,6-dimethoxyphenyl)-2-(morpholin-4-yl)-8-(1H-pyrazol-5-yl)-1,7-naphthyridine] it was 2770 nM; in that of `Nc1ccccc1-c1cc(N2CCOCC2)nc2c(-c3ccn[nH]3)nccc12` [Example 343, 2-[2-(morpholin-4-yl)-8-(1H-pyrazol-5-yl)-1,7-naphthyridin-4-yl]aniline], 19.8 nM. In the case of `Clc1cc(Cl)cc(-c2cc(N3CCOCC3)nc3c(-c4ccn[nH]4)nccc23)c1` [Example 344, 4-(3,5-dichlorophenyl)-2-(morpholin-4-yl)-8-(1H-pyrazol-5-yl)-1,7-naphthyridine] it was 174 nM; in that of `c1ccc(-c2ccccc2-c2cc(N3CCOCC3)nc3c(-c4ccn[nH]4)nccc23)cc1` [Example 345, 4-(biphenyl-2-yl)-2-(morpholin-4-yl)-8-(1H-pyrazol-5-yl)-1,7-naphthyridine], 55.6 nM. In the case of `c1ccc2sc(-c3cc(N4CCOCC4)nc4c(-c5ccn[nH]5)nccc34)cc2c1` [Example 347, 4-(1-benzothiophen-2-yl)-2-(morpholin-4-yl)-8-(1H-pyrazol-5-yl)-1,7-naphthyridine] it was 241 nM. `Cn1nccc1-c1cc(N2CCOCC2)nc2c(-c3ccn[nH]3)nccc12` [Example 348, 4-(1-methyl-1H-pyrazol-5-yl)-2-(morpholin-4-yl)-8-(1H-pyrazol-5-yl)-1,7-naphthyridine]: the IC50 amounted to 55.3 nM. For `c1cc(-c2cc(N3CCOCC3)nc3c(-c4ccn[nH]4)nccc23)c2cccnc2c1` [Example 349, 2-(morpholin-4-yl)-8-(1H-pyrazol-5-yl)-4-(quinolin-5-yl)-1,7-naphthyridine], the concentration for half-maximal inhibition (IC50) is 119 nM.

With `c1cncc(-c2cc(N3CCOCC3)nc3c(-c4ccn[nH]4)nccc23)c1` [Example 350, 2-(morpholin-4-yl)-8-(1H-pyrazol-5-yl)-4-(pyridin-3-yl)-1,7-naphthyridine], the IC50 is 162 nM. With `COc1cc(-c2cc(N3CCOCC3)nc3c(-c4ccn[nH]4)nccc23)ccn1` [Example 351, 4-(2-methoxypyridin-4-yl)-2-(morpholin-4-yl)-8-(1H-pyrazol-5-yl)-1,7-naphthyridine], the IC50 came to 154 nM. In the case of `Cc1cncc(-c2cc(N3CCOCC3)nc3c(-c4ccn[nH]4)nccc23)c1` [Example 352, 4-(5-methylpyridin-3-yl)-2-(morpholin-4-yl)-8-(1H-pyrazol-5-yl)-1,7-naphthyridine] it was 175 nM; in that of `COc1cncc(-c2cc(N3CCOCC3)nc3c(-c4ccn[nH]4)nccc23)c1` [Example 353, 4-(5-methoxypyridin-3-yl)-2-(morpholin-4-yl)-8-(1H-pyrazol-5-yl)-1,7-naphthyridine], 242 nM; in that of `c1ccc2ncc(-c3cc(N4CCOCC4)nc4c(-c5ccn[nH]5)nccc34)cc2c1` [Example 354, 2-(morpholin-4-yl)-8-(1H-pyrazol-5-yl)-4-(quinolin-3-yl)-1,7-naphthyridine], 84.7 nM. In the case of `O=S(=O)(c1ccccc1)n1c(-c2cc(N3CCOCC3)nc3c(-c4ccn[nH]4)nccc23)cc2ccccc21` [Example 355, 2-(morpholin-4-yl)-4-[1-(phenylsulfonyl)-1H-indol-2-yl]-8-(1H-pyrazol-5-yl)-1,7-naphthyridine] it was 484 nM. In the case of `OCc1ccc(-c2cc(N3CCOCC3)nc3c(-c4ccn[nH]4)nccc23)s1` [Example 358, {5-[2-(morpholin-4-yl)-8-(1H-pyrazol-5-yl)-1,7-naphthyridin-4-yl]thiophen-2-yl}methanol] it was 46.4 nM; in that of `Fc1ncccc1-c1cc(N2CCOCC2)nc2c(-c3ccn[nH]3)nccc12` [Example 359, 4-(2-fluoropyridin-3-yl)-2-(morpholin-4-yl)-8-(1H-pyrazol-5-yl)-1,7-naphthyridine], 85.5 nM.
